In the experiment the target is T1, Human complement C1s enzyme (Homo sapiens, UniProt P09871).
T1 sequence (P09871 438-688 limits assumed): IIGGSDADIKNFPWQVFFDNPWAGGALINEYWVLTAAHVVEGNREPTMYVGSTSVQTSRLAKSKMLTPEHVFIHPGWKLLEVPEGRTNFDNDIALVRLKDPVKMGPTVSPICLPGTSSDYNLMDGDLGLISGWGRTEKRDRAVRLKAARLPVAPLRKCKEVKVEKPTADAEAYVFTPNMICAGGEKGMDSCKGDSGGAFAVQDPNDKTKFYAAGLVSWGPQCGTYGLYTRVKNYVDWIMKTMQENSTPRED
T1 sequence (P09871 16-437 partner limits assumed): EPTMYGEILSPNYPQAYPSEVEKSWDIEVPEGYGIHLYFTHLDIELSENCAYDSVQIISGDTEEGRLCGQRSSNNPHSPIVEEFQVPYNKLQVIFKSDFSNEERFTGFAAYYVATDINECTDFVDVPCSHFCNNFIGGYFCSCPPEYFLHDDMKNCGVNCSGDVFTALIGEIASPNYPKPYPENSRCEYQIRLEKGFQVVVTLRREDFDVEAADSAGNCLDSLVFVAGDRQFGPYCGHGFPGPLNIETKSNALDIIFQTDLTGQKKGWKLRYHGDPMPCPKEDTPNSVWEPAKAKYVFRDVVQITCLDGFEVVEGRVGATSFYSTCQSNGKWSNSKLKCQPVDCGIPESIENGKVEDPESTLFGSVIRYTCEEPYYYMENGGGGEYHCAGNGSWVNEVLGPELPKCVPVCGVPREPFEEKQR
The experiment is described as follows: Human C1s enzyme assay. The format is biochemical. Particulars: human complement C1s enzyme 1.16 nM, substrate Z-L-Lys-SBzl 100 μM, 5 min preincubation; read-out: IC50 (Stars), C1s Inhibiting Activity. Put shortly:
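Serum-purified human C1s (1.16 nM final) preincubated 5 min at room temperature with compound in 50 mM Tris, 1 M NaCl, pH 7.5. Z-L-Lys-SBzl and DTNB added at 100 μM each; A405 followed every 30 s for 30 min, and IC50 obtained by nonlinear regression of reaction rates.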
`CO[C@@H]1C[C@@H](C(=O)N[C@H](C)c2cc3cnccc3[nH]2)N(C(=O)CNC(=O)c2ccc3c(c2)-c2ccccc2C3(F)F)C1` [Compound 71, (2S,4R)-N-((R)-1-(1H-pyrrolo[3,2-c]pyridin-2-yl)ethyl)-1-((9,9-difluoro-9H-fluorene-3-carbonyl)glycyl)-4-methoxypyrrolidine-2-carboxamide]: the half-maximal inhibitory concentration (IC50) is below 100 nM.

In the case of `C[C@@H](NC(=O)[C@@H]1C[C@]2(C)C[C@@H]2N1C(=O)CNC(=O)c1ccc(-c2ccc(F)cc2F)cc1)c1cc2cnccc2[nH]1` [Compound 147, (1S,3S,5S)-N-((R)-1-(1H-pyrrolo[3,2-c]pyridin-2-yl)ethyl)-2-((2′,4′-difluoro-[1,1′-biphenyl]-4-carbonyl)glycyl)-5-methyl-2-azabicyclo[3.1.0]hexane-3-carboxamide], the IC50 was in the range of 100 to 1000 nM.

As to `COc1ccc2[nH]c(CNC(=O)[C@@H]3CC4(CN3C(=O)CNC(=O)c3ccc5c(c3)Oc3ccccc3S5)OCCO4)cc2c1` [Compound 52, (S)-N-((5-methoxy-1H-indol-2-yl)methyl)-7-((phenoxathiine-3-carbonyl)glycyl)-1,4-dioxa-7-azaspiro[4.4]nonane-8-carboxamide], the IC50 is above 1000 nM.

In the case of `C[C@@H](NC(=O)[C@@H]1C[C@](F)(CF)CN1C(=O)CNC(=O)c1ccc(-c2ccc(F)cc2F)cc1)c1cc2cnccc2[nH]1` [Compound 162, (2S,4R)-N-((R)-1-(1H-pyrrolo[3,2-c]pyridin-2-yl)ethyl)-1-((2′,4′-difluoro-[1,1′-biphenyl]-4-carbonyl)glycyl)-4-fluoro-4-(fluoromethyl)pyrrolidine-2-carboxamide], the IC50 was in the range of 100 to 1000 nM.

For `COC[C@@]1(F)C[C@@H](C(=O)NCc2cc3cnccc3[nH]2)N(C(=O)CNC(=O)c2ccc3oc4ccccc4c3c2)C1` [Compound 201, (2S,4R)-N-((1H-pyrrolo[3,2-c]pyridin-2-yl)methyl)-1-((dibenzo[b,d]furan-2-carbonyl)glycyl)-4-fluoro-4-(methoxymethyl)pyrrolidine-2-carboxamide], the half-inhibitory concentration (IC50) is below 100 nM.

As for `C[C@@]12C[C@@H]1N(C(=O)CNC(=O)c1cccc(Oc3ccc(F)cc3)c1)[C@H](C(=O)NCc1cc3cnccc3s1)C2` [Compound 252, (1S,3S,5S)-2-((3-(4-fluorophenoxy)benzoyl)glycyl)-5-methyl-N-(thieno[3,2-c]pyridin-2-ylmethyl)-2-azabicyclo[3.1.0]hexane-3-carboxamide], the IC50 was below 100 nM.

Consider `O=C(NCC(=O)N1CC2(C[C@H]1C(=O)NCc1cc3cnccc3[nH]1)OCCO2)c1ccc(-c2ccc(F)cc2F)cc1` [Compound 117, (S)-N-((1H-pyrrolo[3,2-c]pyridin-2-yl)methyl)-7-((2′,4′-difluoro-[1,1′-biphenyl]-4-carbonyl)glycyl)-1,4-dioxa-7-azaspiro[4.4]nonane-8-carboxamide], for which the IC50 lay in the range of 100 to 1000 nM.

Consider `Cc1ccc(Oc2ccnc(C(=O)NCC(=O)N3C[C@H](OC(F)F)C[C@H]3C(=O)NCc3cc4cnccc4[nH]3)c2)c(F)c1` [Compound 323, N-(2-((2S,4R)-2-(((1H-pyrrolo[3,2-c]pyridin-2-yl)methyl)carbamoyl)-4-(difluoromethoxy)pyrrolidin-1-yl)-2-oxoethyl)-4-(2-fluoro-4-methylphenoxy)picolinamide], for which the IC50 was below 100 nM.

For `C[C@@H](NC(=O)[C@@H]1C[C@@H](C(F)(F)F)CN1C(=O)CNC(=O)c1ccc2c(c1)Oc1ccccc1S2)c1cc2cnccc2[nH]1` [Compound 176, (2S,4R)-N-((R)-1-(1H-pyrrolo[3,2-c]pyridin-2-yl)ethyl)-1-((phenoxathiine-3-carbonyl)glycyl)-4-(trifluoromethyl)pyrrolidine-2-carboxamide], the IC50 is below 100 nM.

Consider `O=C(NCC(=O)N1CC2(C[C@H]1C(=O)NCc1cc3ccncc3[nH]1)OCCO2)c1ccc2c(c1)-c1ccccc1C2(F)F` [Compound 9, (S)-N-((1H-pyrrolo[2,3-c]pyridin-2-yl)methyl)-7-((9,9-difluoro-9H-fluorene-3-carbonyl)glycyl)-1,4-dioxa-7-azaspiro[4.4]nonane-8-carboxamide], for which the 50% inhibitory concentration (IC50) is 100 to 1000 nM.

Take `O=C(NCC(=O)N1C[C@H](OC(F)F)C[C@H]1C(=O)O)c1ccc(Oc2ccccc2)cc1` [Compound 118, (2S,4R)-4-(difluoromethoxy)-1-((4-phenoxybenzoyl)glycyl) pyrrolidine-2-carboxylic acid]: the concentration for half-maximal inhibition (IC50) was above 1000 nM.

Regarding `C[C@H](NC(=O)[C@@H]1C[C@@H](OC(F)F)CN1C(=O)CNC(=O)c1ccc(Oc2ccccc2)cc1)c1cc2cnccc2[nH]1` [Compound 22, (2S,4R)-N-((S)-1-(1H-pyrrolo[3,2-c]pyridin-2-yl)ethyl)-4-(difluoromethoxy)-1-((4-phenoxybenzoyl)glycyl) pyrrolidine-2-carboxamide], the concentration for half-maximal inhibition (IC50) lay in the range of 100 to 1000 nM.

On to `C[C@@H](NC(=O)[C@@H]1C[C@@H](c2ncco2)CN1C(=O)CNC(=O)c1ccc2c(c1)Oc1ccccc1S2)c1cc2cnccc2[nH]1` [Compound 177, (2S,4R)-N-((R)-1-(1H-pyrrolo[3,2-c]pyridin-2-yl)ethyl)-4-(oxazol-2-yl)-1-((phenoxathiine-3-carbonyl)glycyl)pyrrolidine-2-carboxamide], for which the half-inhibitory concentration (IC50) is below 100 nM.

On to `C[C@@]12C[C@@H]1N(C(=O)CNC(=O)c1ccc3c(c1)Oc1ccccc1S3)[C@H](C(=O)NCc1cc3cnccn3c1)C2` [Compound 271, (1S,3S,5S)-5-methyl-2-((phenoxathiine-3-carbonyl)glycyl)-N-(pyrrolo[1,2-a]pyrazin-7-ylmethyl)-2-azabicyclo[3.1.0]hexane-3-carboxamide], for which the IC50 was below 100 nM.

As for `C[C@@H](NC(=O)[C@@H]1C[C@@H](c2ccccc2)CN1C(=O)CNC(=O)c1ccc2c(c1)Oc1ccccc1S2)c1cc2cnccc2[nH]1` [Compound 169, (2S,4S)-N-((R)-1-(1H-pyrrolo[3,2-c]pyridin-2-yl)ethyl)-1-((phenoxathiine-3-carbonyl)glycyl)-4-phenylpyrrolidine-2-carboxamide], the half-maximal inhibitory concentration (IC50) is below 100 nM.

On to `O=C(NCC(=O)N1CC2(C[C@H]1C(=O)NCc1cc3nccnc3[nH]1)OCCO2)c1ccc2c(c1)Oc1ccccc1S2` [Compound 48, (S)-N-((5H-pyrrolo[2,3-b]pyrazin-6-yl)methyl)-7-((phenoxathiine-3-carbonyl)glycyl)-1,4-dioxa-7-azaspiro[4.4]nonane-8-carboxamide], for which the 50% inhibitory concentration (IC50) was above 1000 nM.

With `Cc1ccsc1Oc1cccc(C(=O)NCC(=O)N2C[C@H](OC(F)F)C[C@H]2C(=O)NCc2cc3cnccc3[nH]2)c1` [Compound 385, (2S,4R)-N-((1H-pyrrolo[3,2-c]pyridin-2-yl)methyl)-4-(difluoromethoxy)-1-((3-((3-methylthiophen-2-yl)oxy)benzoyl)glycyl) pyrrolidine-2-carboxamide], the IC50 was below 100 nM.

As to `O=C(NCC(=O)N1C[C@H](OC(F)F)C[C@H]1C(=O)NCc1cc2cnccc2s1)c1cccc(Oc2ccc(F)cc2)c1` [Compound 254, (2S,4R)-4-(difluoromethoxy)-1-((3-(4-fluorophenoxy)benzoyl)glycyl)-N-(thieno[3,2-c]pyridin-2-ylmethyl)pyrrolidine-2-carboxamide], the IC50 is below 100 nM.

As for `O=C(NCc1cc2cnccc2[nH]1)[C@@H]1C[C@@H](OC(F)F)CN1C(=O)CN1Cc2ncc(-c3ccc(F)cc3F)cc2C1=O` [Compound 135, (2S,4R)-N-((1H-pyrrolo[3,2-c]pyridin-2-yl)methyl)-4-(difluoromethoxy)-1-(2-(3-(2,4-difluorophenyl)-5-oxo-5,7-dihydro-6H-pyrrolo[3,4-b]pyridin-6-yl)acetyl)pyrrolidine-2-carboxamide], the 50% inhibitory concentration (IC50) is above 1000 nM.

On to `CS(=O)(=O)[C@@H]1C[C@@H](C(=O)N[C@H](CO)c2cc3cnccc3[nH]2)N(C(=O)CNC(=O)c2ccc3c(c2)-c2ccccc2C3(F)F)C1` [Compound 104, (2S,4R)-1-((9,9-difluoro-9H-fluorene-3-carbonyl)glycyl)-N-((S)-2-hydroxy-1-(1H-pyrrolo[3,2-c]pyridin-2-yl)ethyl)-4-(methylsulfonyl) pyrrolidine-2-carboxamide], for which the IC50 fell in the range of 100 to 1000 nM.

Regarding `O=C(NCC(=O)N1C[C@H](OC(F)F)C[C@H]1C(=O)NCc1cc2cnccn2c1)c1cccc(Oc2ccc(F)cc2)c1` [Compound 278, (2S,4R)-4-(difluoromethoxy)-1-((3-(4-fluorophenoxy)benzoyl)glycyl)-N-(pyrrolo[1,2-a]pyrazin-7-ylmethyl)pyrrolidine-2-carboxamide], the IC50 is below 100 nM.

In the case of `O=C(NCC(=O)N1C[C@H](OC(F)F)C[C@H]1C(=O)NCc1cc2cnccc2[nH]1)c1cccc(Oc2ccc(F)cc2)c1` [Compound 154, (2S,4R)-N-((1H-pyrrolo[3,2-c]pyridin-2-yl)methyl)-4-(difluoromethoxy)-1-((3-(4-fluorophenoxy)benzoyl)glycyl)pyrrolidine-2-carboxamide], the 50% inhibitory concentration (IC50) was below 100 nM.

Values taken from US20260062443A1 (ALEXION PHARMACEUTICALS, INC., priority 2022, published 2026).
